Results reported in patent US20010039287A1, “AROMATIC SULFONE HYDROXAMIC ACID METALLOPROTEASE INHIBITOR” (priority 1997, published 2001).
Counter-ions that a name gives are not always drawn. Like-named read-outs stand apart in the source and are kept apart here.

Key:
[1] = molecular target: recombinant human MMP-13 (Homo sapiens, UniProt P45452); assay: biochemical
[2] = molecular target: T1, recombinant human MMP-1 (Homo sapiens, UniProt P03956); assay: biochemical
T1 construct: made in house; host or cells: transfected HT-1080 cells (provided by Dr. Harold Welgus, Washington University)
T1 sequence (P03956 100-469): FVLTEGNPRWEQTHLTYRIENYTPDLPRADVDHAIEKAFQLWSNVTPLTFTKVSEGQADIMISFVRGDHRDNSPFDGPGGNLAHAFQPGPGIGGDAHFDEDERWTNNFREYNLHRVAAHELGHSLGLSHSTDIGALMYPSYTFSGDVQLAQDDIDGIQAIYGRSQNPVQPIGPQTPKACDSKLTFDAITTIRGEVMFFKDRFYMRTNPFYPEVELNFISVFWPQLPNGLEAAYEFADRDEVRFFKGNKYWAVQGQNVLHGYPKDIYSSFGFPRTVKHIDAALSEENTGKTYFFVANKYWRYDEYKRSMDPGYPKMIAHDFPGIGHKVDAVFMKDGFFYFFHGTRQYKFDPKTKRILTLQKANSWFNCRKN

[3] = molecular target: T2, recombinant human MMP-2 (Homo sapiens, UniProt P08253); assay: biochemical
T2 sequence (P08253 110-660): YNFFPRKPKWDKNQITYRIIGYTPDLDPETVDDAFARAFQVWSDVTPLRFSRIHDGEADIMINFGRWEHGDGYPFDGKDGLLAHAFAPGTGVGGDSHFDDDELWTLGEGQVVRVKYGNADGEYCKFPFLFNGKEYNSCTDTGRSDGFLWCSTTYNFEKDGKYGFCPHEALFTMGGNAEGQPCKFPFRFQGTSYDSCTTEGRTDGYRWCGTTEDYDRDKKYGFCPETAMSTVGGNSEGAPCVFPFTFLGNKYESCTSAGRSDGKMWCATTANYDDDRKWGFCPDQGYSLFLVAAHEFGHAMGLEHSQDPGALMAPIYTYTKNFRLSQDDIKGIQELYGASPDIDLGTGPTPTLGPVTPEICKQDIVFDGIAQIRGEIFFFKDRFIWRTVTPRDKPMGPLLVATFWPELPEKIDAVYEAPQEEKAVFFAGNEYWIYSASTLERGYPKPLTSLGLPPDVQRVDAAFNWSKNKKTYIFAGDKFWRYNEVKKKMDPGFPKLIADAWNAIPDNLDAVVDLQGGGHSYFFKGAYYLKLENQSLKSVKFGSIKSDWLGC

[4] = molecular target: recombinant human MMP-9 (Homo sapiens, UniProt P14780); assay: biochemical
Sequence of recombinant human MMP-9 (P14780 107-707 limits assumed): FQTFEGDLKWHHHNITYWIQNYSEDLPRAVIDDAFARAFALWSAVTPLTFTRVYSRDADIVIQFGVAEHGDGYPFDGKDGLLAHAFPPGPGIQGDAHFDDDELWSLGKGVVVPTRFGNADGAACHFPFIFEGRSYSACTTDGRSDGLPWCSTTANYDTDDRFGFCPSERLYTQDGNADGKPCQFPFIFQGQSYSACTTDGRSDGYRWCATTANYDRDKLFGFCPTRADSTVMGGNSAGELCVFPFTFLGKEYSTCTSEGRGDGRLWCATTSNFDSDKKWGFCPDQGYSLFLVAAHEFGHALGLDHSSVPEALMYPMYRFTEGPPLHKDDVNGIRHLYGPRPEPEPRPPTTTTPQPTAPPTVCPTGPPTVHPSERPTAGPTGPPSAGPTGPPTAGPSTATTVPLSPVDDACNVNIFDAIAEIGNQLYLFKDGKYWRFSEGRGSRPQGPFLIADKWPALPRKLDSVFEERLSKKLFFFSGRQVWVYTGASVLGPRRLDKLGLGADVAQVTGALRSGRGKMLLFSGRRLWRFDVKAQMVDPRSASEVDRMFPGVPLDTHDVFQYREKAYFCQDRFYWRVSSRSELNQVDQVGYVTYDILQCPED

[5] = parameters: AUC (0-∞): unit not given beside the values; conditions: for t½ Hour: Rat Intravenous 20 mpk
[6] = test system: TNFα; assay: Tumor necrosis factor assay: TNFα ELISA on PMA-stimulated U-937 cell supernatant; conditions: Homo sapiens, U-937, read-out: TNFα Release IC50 in micromolar
[7] = Inhibition Table A, read-out: MMP-1 IC50
[8] = Inhibition Table B, read-out: MMP-13 IC50
[9] = Inhibition Table B, read-out: MMP-1 IC50
[10] = Inhibition Table B, read-out: MMP-2 IC50
[11] = Inhibition Table B, read-out: MMP-9 IC50

| Compound | IC50 [1, 8] [nM] | IC50 [2, 9] [nM] | IC50 [3, 10] [nM] | IC50 [4, 11] [nM] | t½ Hour [5] [min] | further results |
| --- | --- | --- | --- | --- | --- | --- |
| O=C(NO)C1(S(=O)(=O)c2ccc(Oc3ccccc3)cc2)CCSCC1 [Example 109] | 0.3 | 500 | 0.1 | 0.7 | 67.2 |  |
| Cl.O=C(NO)C1(S(=O)(=O)c2ccc(Oc3ccc(Cl)cc3)cc2)CCNCC1 [Example 93, 4-[[4-(4-chlorophenoxy)-phenyl]sulfonyl]-N-hydroxy-4-piperidinecarboxamide, Monohydrochloride] | 0.7 | 8000 | 0.4 | 3.5 | 109 |  |
| CC(C)c1ccc(Oc2ccc(S(=O)(=O)C3(C(=O)NO)CCOCC3)cc2)cc1 [Example 125] | 0.5 | > 10000 | 0.4 | 7 | 43.8 |  |
| CC(=O)N1CCC(C(=O)NO)(S(=O)(=O)c2ccc(Sc3ccccc3)cc2)CC1.Cl [Example 36, 1-acetyl-N-hydroxy-4-[[4-(phenylthio)phenyl]sulfonyl]-4-piperidinecarboxamide, Monohydrochloride] | 0.6 | 7300 | 0.4 | 8 | 39 |  |
| Cl.O=C(NO)C1(S(=O)(=O)c2ccc(Sc3ccncc3)cc2)CCOCC1 [Example 104, Tetrahydro-N-hydroxy-4-[[4-(4-pyridinylthio)phenyl]sulfonyl]-2H-pyran-4-carboxamide, Monohydrochloride] | 0.65 | > 10000 | 1.5 | 42.8 | 39.6 |  |
| O=C(NO)C1(S(=O)(=O)c2ccc(Oc3ccccc3)cc2)CC[S+]([O-])CC1 (centres unmarked) [Example 111] | 1.3 | 3700 | 0.5 |  | 39 |  |
| Cl.O=C(NO)C1(S(=O)(=O)c2ccc(Oc3ccc(-n4cncn4)cc3)cc2)CCS(=O)(=O)CC1 [Example 53, Tetrahydro-N-hydroxy-4-[[4-[4-(1H-1,2,4-triazol-1-yl)phenoxy]-phenyl]-sulfonyl]-2H-thiopyran-4-carboxamide 1,1-dioxide, Monohydrochloride] | 1.5 | > 10000 | 0.3 | 92 | 58.2 |  |
| O=C(NO)C1(S(=O)(=O)c2ccc(Sc3ccc(OC(F)(F)F)cc3)cc2)CCOCC1 [Example 73, tetrahydro-N-hydroxy-4-[[4-[4-(trifluoromethoxy)phenylthio]-phenyl]-sulfonyl]-2H-pyran-4-carboxamide] |  | 1140 |  | 0.2 |  | IC50 [1]: < 0.1 nM; IC50 ([3]; MMP-2 IC50 (nM)): < 0.1 nM; Blood Level @ 6 hr ([5]; rat, in vivo, po, 20 mg/kg): 0.372 µg/mL |
| Cl.O=C(NO)C1(S(=O)(=O)c2ccc(Sc3ccccc3)cc2)CCN(C2CC2)CC1 [Example 32, 1-cyclopropyl-N-hydroxy-4-[[4-(phenylthio)phenyl]sulfonyl]-4-piperidine Carboxamide, Monohydrochloride] | 0.2 |  | 0.1 | 2.5 | 61.8 | IC50 [2]: > 10000 nM |
| Cl.O=C(NO)C1(S(=O)(=O)c2ccc(Oc3ccc(-n4ccnc4)cc3)cc2)CCOCC1 [Example 99, tetrahydro-N-hydroxy-4-[[4-[4-(1H-imidazol-1-yl)phenoxy]phenyl]-sulfonyl]-2H-pyran-4-carboxamide, Monohydrochloride] | 1 | > 10000 | 0.4 |  | 40.8 |  |
| C#CCN1CCC(C(=O)NO)(S(=O)(=O)c2ccc(Oc3ccc(C)c(C)c3)cc2)CC1.Cl [Example 43, 4-[[4-(3,4-Dimethylphenoxyl)phenyl]sulfonyl]-N-hydroxy-1-(2-propynyl)-4-piperidinecarboxamide, Monhydrochloride] | 0.8 | 7000 | 0.4 |  | 49.2 |  |
| Cl.O=C(NO)C1(S(=O)(=O)c2ccc(Oc3ccc4c(c3)OCCO4)cc2)CCN(C2CC2)CC1 [Example 408, 1-cyclopropyl-4-[[4-[(2,3-dihydro-1,4-benzodioxin-6-yl)oxy]phenyl]-sulfonyl]-N-hydroxy-4-piperidine-carboxamide, Monohydrochloride] |  |  |  |  | 198 |  |
| O=C(O)CNc1ccc(Oc2ccc(S(=O)(=O)C3(C(=O)NO)CCSCC3)cc2)cc1 [Example 117, tetrahydro-N-hydroxy-4-[[4-[4-hydroxyphenyl Glycine)]phenyl] Sulfonyl 2H-thiopyran-4-carboxamide] | 4.8 | 3700 | 0.6 | 45.4 | 46.8 |  |
| O=C(NO)C1(S(=O)(=O)c2ccc(Oc3ccccc3)cc2)CCOCC1 [Example 94, Tetrahydro-N-hydroxy-4-[(4-phenoxyphenyl)sulfonyl]-2H-pyran-4-carboxamide] | < 0.1 |  | < 0.1 |  | 103 |  |
| COCCN1CCC(C(=O)NO)(S(=O)(=O)c2ccc(Oc3ccc(C(F)(F)F)cc3)cc2)CC1.Cl [Example 418, N-hydroxy-1-(2-methoxyethyl)-4-[[4-[4-(trifluoromethyl)-phenoxy]phenyl]sulfonyl}-4-piperidinecarboxamide, Monohydrochloride] |  |  |  |  | 145 |  |
| O=C(NO)C1(S(=O)(=O)c2ccc(Oc3ccc(C(F)(F)F)cc3)cc2)CCN(CCN2CCOCC2)CC1 [Example 388, N-hydroxy-1-[2-(4-morpholinyl)-ethyl]-4-[[4-[4-(trifluoromethyl)phenoxy]-phenyl]sulfonyl]-4-piperidinecarboxamide, Dihydrochloride] |  |  |  |  | 56.4 |  |
| C#CCN1CCC(C(=O)NO)(S(=O)(=O)c2ccc(Sc3ccccc3)cc2)CC1 [Example 9] |  |  |  |  |  | IC50 [2, 7]: 9000 nM; IC50 ([3]; Inhibition Table A, read-out: MMP-2 IC50): 0.2 nM; IC50 [6]: > 50 µM |
| CC(=O)N1CCC(C(=O)NO)(S(=O)(=O)c2ccc(Oc3ccccc3)cc2)CC1 [Example 12] |  |  |  |  |  | IC50 [1]: < 0.1 nM; IC50 [2]: 464 nM; IC50 ([3]; MMP-2 IC50 (nM)): < 0.1 nM; AUC (0-∞) ([5]; rat, in vivo): 22.11; t1/2 ([5]; rat, in vivo): 51.6 min; Blood Level @ 3 min ([5]; rat, in vivo, iv, 20 mg/kg): 73.54 µg/mL |
| NCC(=O)Nc1ccc(Sc2ccc(S(=O)(=O)C3(C(=O)NO)CCSCC3)cc2)cc1 [Example 118, tetrahydro-N-hydroxy-4-[[4-[4-hydroxyphenylglycine))phenyl] Sulfonyl 2H-thiopyran-4-carboxamide] | 0.8 | 2850 | 0.3 | 50 | 111 |  |
| CN1CCC(C(=O)NO)(S(=O)(=O)c2ccc(Sc3ccccc3)cc2)CC1.Cl [Example 33, N-hydroxy-1-methyl-4-[[4-(phenylthio)phenyl]sulfonyl]-4-piperidinecarboxamide, Monohydrochloride] | 0.8 |  | 0.5 | 9.4 | 115 | IC50 [2]: > 10000 nM |
| O=C(NO)C1(S(=O)(=O)c2ccc(Sc3ccc(F)cc3)cc2)CCOCC1 [Example 103, 4-[[4-[(4-fluorophenyl)-thio]phenyl]sulfonyl]tetrahydro-N-hydroxy-2H-pyran-4-carboxamide] | 0.7 | > 10000 | 0.8 | 10 | 66 |  |
| C#CCN1CCC(C(=O)NO)(S(=O)(=O)c2ccc(Oc3ccc(Cl)c(C)c3)cc2)CC1.Cl [Example 81, 4-[[4-(4-chloro-3-methylphenoxy)phenyl]sulfonyl]-N-hydroxy-1-(2-propynyl)-4-piperidinecarboxamide, Monohydrochloride] | 0.3 | 3300 | 0.1 |  | 45.6 |  |
